# Test results published in ChEMBL document CHEMBL5154871, “Non-peptidyl non-covalent cathepsin C inhibitoEEr bearing a unique thiophene-substituted pyridine: Design, structure-activity relationship and anti-inflammatory activity in vivo” (Eur J Med Chem, 2022).
# Active and inactive are the calls of the source. The calls are words filed in the database; no cut-off is given here.
# Columns and labels:
# Dipeptidyl peptidase 1 [1] = target: T1, Dipeptidyl peptidase 1 (Homo sapiens, UniProt P53634); assay: Inhibition of Cathepsin C in human THP-1 cells using H-Gly-Phe-AFC as substrate pretreated for 1 hr followed by substrate addition and incubated for 60 mins by microplate reader assay; type: cell-based
# T1 sequence (P53634 25-134 limits assumed): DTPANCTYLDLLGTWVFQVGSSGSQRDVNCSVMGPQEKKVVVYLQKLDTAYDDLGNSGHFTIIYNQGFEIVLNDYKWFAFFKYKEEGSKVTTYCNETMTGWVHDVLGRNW
# T1 sequence (P53634 231-394 limits assumed): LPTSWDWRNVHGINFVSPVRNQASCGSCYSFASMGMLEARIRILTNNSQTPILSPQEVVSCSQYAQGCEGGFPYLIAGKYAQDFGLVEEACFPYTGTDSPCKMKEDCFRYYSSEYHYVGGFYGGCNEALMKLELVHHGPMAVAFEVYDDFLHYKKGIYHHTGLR
# T1 sequence (P53634 395-463 limits assumed): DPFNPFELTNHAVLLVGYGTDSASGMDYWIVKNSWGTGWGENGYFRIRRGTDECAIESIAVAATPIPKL
# Dipeptidyl peptidase 1 [2] = target: T1, Dipeptidyl peptidase 1; assay: Inhibition of Cathepsin C in human U-937 cells using H-Gly-Phe-AFC as substrate pretreated for 1 hr followed by substrate addition and incubated for 60 mins by microplate reader assay; type: cell-based
# Cathepsin B = Cathepsin B (Homo sapiens, UniProt P07858); assay: Inhibition of human recombinant Cathepsin B using Z-Leu-Arg-AMC as substrate pretreated for 60 mins followed by substrate addition and incubated for 30 mins by microplate reader assay
# [3] = Acute toxicity in ICR mouse assessed as pathological changes of liver at 1500 mg/kg, po administered as single dose measured after 7 days by H and E staining based assay; type: organism-based; conditions: in vivo, time 7 day
# [4] = Acute toxicity in ICR mouse assessed as pathological changes of heart at 1500 mg/kg, po administered as single dose measured after 7 days by H and E staining based assay; type: organism-based; conditions: in vivo, time 7 day
# [5] = Half life in Sprague-Dawley rat at 10 mg/kg, po measured for 24 hrs by LC-MS/MS analysis; type: ADME, organism-based; conditions: in vivo
# [6] = Half life in Sprague-Dawley rat at 2 mg/kg, iv measured for 24 hrs by LC-MS/MS analysis; type: ADME, organism-based; conditions: in vivo
# [7] = Cmax in Sprague-Dawley rat at 2 mg/kg, iv measured after 24 hrs by LC-MS/MS analysis; type: ADME, organism-based; set-up: time 24 hrs, dose 2 mg/kg, route iv; conditions: in vivo
# [8] = AUC(last) in Sprague-Dawley rat at 2 mg/kg, iv measured after 24 hrs by LC-MS/MS analysis; type: ADME, organism-based; set-up: dose 2 mg/kg, time 24 hrs, route iv; conditions: in vivo
# [9] = AUC(0 to infinity) in Sprague-Dawley rat at 10 mg/kg, po by LC-MS/MS analysis; type: ADME, organism-based; set-up: time infinity, dose 10 mg/kg, route po; conditions: in vivo
# [10] = target: T2, Dipeptidyl peptidase 1 (Mus musculus) (UniProt P97821); assay: Inhibition of Cathepsin C in C57BL/6 mouse Bone marrow cells assessed as reduction of NSPs stability by measuring stability of neutrophil elastase at 1 uM treated for 12 hrs by Western blotting analysis; type: cell-based; set-up: scale not given: the % may be the effect or the level left; conditions: Bone marrow cell
# T2 sequence (whole entry): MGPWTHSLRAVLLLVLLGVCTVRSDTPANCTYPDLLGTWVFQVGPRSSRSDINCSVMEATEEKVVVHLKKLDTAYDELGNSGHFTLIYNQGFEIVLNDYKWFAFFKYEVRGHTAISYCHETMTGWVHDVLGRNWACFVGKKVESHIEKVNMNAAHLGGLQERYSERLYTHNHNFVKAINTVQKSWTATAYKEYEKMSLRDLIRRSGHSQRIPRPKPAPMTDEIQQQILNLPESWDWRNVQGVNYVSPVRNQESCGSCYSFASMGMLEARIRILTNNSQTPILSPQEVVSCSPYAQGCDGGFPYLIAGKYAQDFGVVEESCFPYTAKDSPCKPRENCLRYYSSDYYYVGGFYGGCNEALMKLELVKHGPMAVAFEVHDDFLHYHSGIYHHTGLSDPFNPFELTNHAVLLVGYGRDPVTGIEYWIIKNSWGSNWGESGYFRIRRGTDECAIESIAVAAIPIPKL
# Mus musculus [11] = assay: Anti-inflammatory activity against po dosed LPS-induced ALI C57BL/6 mouse model assessed as decrease in MPO activity in lungs treated 1 hr prior to LPS challenge and measured after 48 hrs; type: functional, organism-based; conditions: dose 2-50 mg/kg, time 49.0 hrs, DDE = dose-dependent effect
# Mus musculus [12] = assay: Anti-inflammatory activity against po dosed LPS-induced ALI C57BL/6 mouse model assessed as decrease in TNF-alpha level in serum treated 1 hr prior to LPS challenge and measured after 48 hrs by ELISA; type: functional, organism-based; conditions: dose 2-50 mg/kg, time 49.0 hrs, DDE = dose-dependent effect
# Mus musculus [13] = assay: Anti-inflammatory activity against po dosed LPS-induced ALI C57BL/6 mouse model assessed as decrease in GM-CSF level in serum treated 1 hr prior to LPS challenge and measured after 48 hrs by ELISA; type: functional, organism-based; conditions: dose 2-50 mg/kg, time 49.0 hrs, DDE = dose-dependent effect
# Dipeptidyl peptidase 1 [14] = target: T1, Dipeptidyl peptidase 1; assay: Binding affinity to Cathepsin C in human U-937 cells assessed as increase in thermal stability measured at 52 degC after 4 hrs by cellular thermal shift assay; type: cell-based; conditions: dose 0.5-10 µM
# [15] = Acute toxicity in ICR mouse assessed as mortality at 1500 mg/kg, po administered as single dose and measured for 7 days; type: organism-based; conditions: in vivo, time 7 day
# [16] = target: T2, Dipeptidyl peptidase 1 (Mus musculus); assay: Inhibition of Cathepsin C in C57BL/6 mouse Bone marrow cells assessed as reduction of NSPs stability by measuring stability of protease 3 at 1 uM treated for 12 hrs by Western blotting analysis; type: cell-based; set-up: scale not given: the % may be the effect or the level left; conditions: Bone marrow cell
# Mus musculus [17] = assay: Anti-inflammatory activity against LPS-induced ALI C57BL/6 mouse model assessed as increase in animal survival rate at 2 to 50 mg/kg, po treated 1 hr prior to LPS challenge and measured after 48 hrs; type: functional, organism-based; conditions: dose 2-50 mg/kg, time 49.0 hrs
# Mus musculus [18] = assay: In vivo inhibition of cathepsin C in po dosed LPS-induced ALI C57BL/6 mouse model assessed as downregulation of neutrophil elastase activity in bone marrow treated 1 hr prior to LPS challenge and measured after 48 hrs; type: functional, organism-based; conditions: dose 2-50 mg/kg, time 49.0 hrs, DDE = dose-dependent effect
# Mus musculus [19] = assay: In vivo inhibition of cathepsin C in po dosed LPS-induced ALI C57BL/6 mouse model assessed as downregulation of Cat G activity in bone marrow treated 1 hr prior to LPS challenge and measured after 48 hrs; type: functional, organism-based; conditions: dose 2-50 mg/kg, time 49.0 hrs, DDE = dose-dependent effect
# Mus musculus [20] = assay: In vivo inhibition of cathepsin C in po dosed LPS-induced ALI C57BL/6 mouse model assessed as downregulation of neutrophil elastase activity in blood treated 1 hr prior to LPS challenge and measured after 48 hrs; type: functional, organism-based; conditions: dose 2-50 mg/kg, time 49.0 hrs, DDE = dose-dependent effect
# Mus musculus [21] = assay: In vivo inhibition of cathepsin C in po dosed LPS-induced ALI C57BL/6 mouse model assessed as downregulation of Cat G activity in blood treated 1 hr prior to LPS challenge and measured after 48 hrs; type: functional, organism-based; conditions: dose 2-50 mg/kg, time 49.0 hrs, DDE = dose-dependent effect
# Mus musculus [22] = assay: Anti-inflammatory activity against po dosed LPS-induced ALI C57BL/6 mouse model assessed as increase in IL-10 level in serum treated 1 hr prior to LPS challenge and measured after 48 hrs by ELISA; type: functional, organism-based; conditions: dose 2-50 mg/kg, time 49.0 hrs, DDE = dose-dependent effect
# Mus musculus [23] = assay: Anti-inflammatory activity against po dosed LPS-induced ALI C57BL/6 mouse model assessed as decrease in IL-6 level in lungs treated 1 hr prior to LPS challenge and measured after 48 hrs by ELISA; type: functional, organism-based; conditions: dose 2-50 mg/kg, time 49.0 hrs, DDE = dose-dependent effect
# Mus musculus [24] = assay: Anti-inflammatory activity against po dosed LPS-induced ALI C57BL/6 mouse model assessed as increase in IL-10 level in lungs treated 1 hr prior to LPS challenge and measured after 48 hrs by ELISA; type: functional, organism-based; conditions: dose 2-50 mg/kg, time 49.0 hrs, DDE = dose-dependent effect
structure (smiles),measurement,setting,value
CC(=O)Nc1cccc(Nc2nc(Nc3ccc(-c4ccsc4)cn3)ncc2Cl)c1,IC50,Dipeptidyl peptidase 1 [1],115 nM
same,IC50,Dipeptidyl peptidase 1 [2],70.2 nM
same,IC50,Cathepsin B,> 5000 nM
same,Activity,[3],Non-Toxic
same,Activity,[4],Non-Toxic
same,half-life,[5],1.79 h
same,half-life,[6],2.5 h
same,Cmax,[7],309 ng/mL
same,AUC(0-t) at 24 h,[8],1440 ng·h/mL
same,AUC,[9],473.18 ng·h/mL
same,Activity,[10],68.3%
same,Activity,Mus musculus [11],Dde
same,Activity,Mus musculus [12],Dde
same,Activity,Mus musculus [13],Dde
same,Activity,Dipeptidyl peptidase 1 [14],Active
same,Activity,[15],Non-Toxic
same,Activity,[16],78.4%
same,Activity,Mus musculus [17],Active
same,inhibition,Mus musculus [18],Dde
same,inhibition,Mus musculus [19],Dde
same,inhibition,Mus musculus [20],Dde
same,inhibition,Mus musculus [21],Dde
same,Activity,Mus musculus [22],Dde
same,Activity,Mus musculus [23],Dde
same,Activity,Mus musculus [24],Dde
